Experimental data from patent US12145920B2, “Lanthionine c-like protein 2 ligands, cells prepared therewith, and therapies using same” (NImmune Biopharma, Inc., priority 2019, dated 2024).

What was measured:
CD4+ T cells = assay: Immune effects in CD4+ splenocytes, flow cytometry (wild type); format: cell-based, C57BL/6 mice; conditions: 0.1 micromolar, 48 h, vs vehicle, FIG. 4B
From the text: Cell culture. Spleens were excised from C57BL/6 mice and assessed in wild-type and LANCL2 deficient states. Spleens were crushed between the frosted ends of microscope slides and filtered to provide a cellular suspension. Red blood cells were lysed through hypotonic lysis. Remaining cells were washed and filtered. CD4+ T cells were enriched within the suspension using magnetic sorting based negative selection. Cells were collected and plated within 96 well plates coated with anti-CD3 and cultured in the presence of BT-63 at 0, 0.1, 1 and 10 micromolar or BT-104A, BT-104B, or BT-104C at 0.1 micromolar for 48 h. During the last 6 h of culture, cells were stimulated with phorbol 12-myristate-13-acetate (PMA) and ionomycin.
Immunological analysis. Cells were collected from 96 well plates and stained with a cocktail of antibodies for immunophenotyping by flow cytometry. Culture supernatant was collected and assayed for cytokine concentrations by cytometric bead array. Data was captured on a BD FACS Celesta and analyzed using FacsDiva.

NZB/W F1 mice = assay: NZB/W F1 genetic mouse model of SLE (BT-104-B); format: in vivo; conditions: spleens, 12 weeks daily oral 20 mg/kg vs vehicle
Protocol: NZB/W F1 model. Twenty-four-week-old, female NZB/W F1 mice were randomized into vehicle or BT-104-B treated arms based on baseline urine protein levels. BT-104-B was administered daily at 20 mg/kg for 12 weeks. Mice were weighed on a weekly basis to update dosage formulation. Dosage was calculated based off mean body weights.
(§1) Immunological analysis. Spleens were excised, crushed and filtered to provide a cellular suspension. Red blood cells were lysed. Cells were labeled with mixtures of extracellular (CD45, CD3, CD4, CD8, CD25) and intracellular (IL21, IL17, FOXP3) antibodies in a sequential live staining in 96-well plates in preparation for flow cytometry. Data was captured on a BD FACS Celesta and analyzed using FACSDiva.

[1] = test system: C57B1/6 mice immunized with chicken collagen; assay: Collagen induced model of arthritis; format: in vivo; conditions: spleens, 4 weeks daily oral 20 mg/kg vs vehicle
Protocol: Models. Six-week-old C57B1/6 mice were immunized with 200 μg of chicken collagen emulsified in complete Freund's adjuvant by intradermal injections at the base of the tail. Mice were treated with 20 mg/kg of BT-104-B or vehicle, daily for four weeks.
as §1, with “excised from mice. Tissues were” for “excised,”, “CD11b, CD11c)” for “CD25)”, “(IFNγ,” for “(IL21,”, “TNF)” for “FOXP3)”

[2] = test system: C57BL/6 mice with CCl4-induced steatohepatitis; assay: CCl4 model of nonalcoholic steatohepatitis; format: in vivo; conditions: oral 20 mg/kg, after 2 weeks of treatment
Protocol: WD-induced model. C57BL/6 mice were administered bi-weekly intraperitoneal injections of 0.5 μL/g CCl4 to induce steatohepatitis for 4 weeks. Mice were treated daily, in a therapeutic manner after 2 weeks of injections. Treatment with BT-104-B (20 mg/kg) or vehicle control occurred by oral gavage. Dosage was calculated based off mean body weights.
Analysis. Livers were excised and weighed. Sections of livers were excised and stored in buffered formalin for Sirius red staining or snap frozen for assessment of fibrosis. Severity of fibrosis was assessed by scoring of Sirius red stained liver by microscopic examination.

[3] = mice, oral dose of 10 mg/kg, comparison value; cited from earlier work

Row | SMILES | TNFa+ CD4+ T cells (CD4+ T cells) | proportions of IFNγ+ CD4+ T cells (CD4+ T cells) | proportion of CD25+ FOXP3+ CD4+ T cells (NZB/W F1 mice) | proportion of IL21+ CD4+ T cells (NZB/W F1 mice) | proportion of IL-17+ CD4+ T cells (NZB/W F1 mice) | proportion of IFNγ+ CD4+ T cells [1] | proportion of IL-17+ CD4+ T cells [1] | proportion of TNF+ CD11b+ CD11c+ myeloid cells [1] | fibrotic scoring ([2]; Sirius red) | liver weights [2] | maximum plasma concentration [3]
1 | O=C(CN1C(=O)CN(C(=O)c2cccc(-c3nc4ccccc4[nH]3)n2)CC1=O)c1ccccc1 [BT-104-B, 4-(6-(1H-benzo[d]imidazol-2-yl)picolinoyl)-1-(2-oxo-2-phenylethyl)piperazine-2,6-dione] | significantly decreasing | significantly decrease | significantly increasing | significantly reduced | significantly reduced | significantly reduced | significantly reduced | significantly reduced | reduced | reduced | 
2 | O=C(c1cccc(-c2nc3ccccc3[nH]2)n1)N1CCN(C(=O)c2cccc(-c3nc4ccccc4[nH]3)n2)CC1 [BT-11, N,N-Bis(benzimidazolylpicolinoyl)piperazine] |  |  |  |  |  |  |  |  |  |  | 4.9 ng/mL
3 | CC(C)(C(=O)c1ccccc1)N1CCN(C(=O)c2cccc(-c3nc4ccccc4[nH]3)n2)CC1 [BT-104-A] | significantly decreasing | significantly decrease |  |  |  |  |  |  |  |  | 
